# Source: patent US20090130085A1, “Amidino-Compounds for Stabilizing Factor VII Polypeptide Formulations” (NOVO NORDISH HEALTHCARE AG, priority 2005, published 2009)
# Target: T1, rhFVIIa (Homo sapiens, UniProt P08709)
# T1 construct: Typically, Factor VII is cleaved between amino acid residues 152 and 153 to yield Factor VIIa
# T1 sequence (P08709 61-212 limits assumed): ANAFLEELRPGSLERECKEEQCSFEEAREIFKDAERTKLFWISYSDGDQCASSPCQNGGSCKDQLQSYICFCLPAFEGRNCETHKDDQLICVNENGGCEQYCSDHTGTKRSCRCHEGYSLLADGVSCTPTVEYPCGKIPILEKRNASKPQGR
# T1 sequence (P08709 213-466 limits assumed): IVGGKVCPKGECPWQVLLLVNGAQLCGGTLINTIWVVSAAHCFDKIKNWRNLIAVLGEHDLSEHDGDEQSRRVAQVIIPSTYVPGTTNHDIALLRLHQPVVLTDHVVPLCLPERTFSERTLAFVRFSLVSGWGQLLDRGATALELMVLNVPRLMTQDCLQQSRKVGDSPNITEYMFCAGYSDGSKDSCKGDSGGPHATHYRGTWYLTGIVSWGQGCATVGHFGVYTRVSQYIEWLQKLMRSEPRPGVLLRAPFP
# Test: Clot assay / one-stage coagulation assay of stored rhFVIIa formulations
# Assay type: biochemical
# Conditions: 1 mM compound in 1.0 mg/mL rhFVIIa formulation, pH 6.5, stored at 5° C. and 25° C.
# Source text: The biological activity of Factor VII (as Factor VIIa) in blood clotting derives from its ability to (i) bind to tissue factor (TF) and (ii) catalyze the proteolytic cleavage of Factor IX or Factor X to produce activated Factor IX or X (Factor IXa or Xa, respectively). Human Factor VIIa biological activity may be quantified by an assay measuring the ability of a preparation to promote blood clotting using Factor VII-deficient plasma and thromboplastin, as described, e.g., in U.S. Pat. No. 5,997,864. In this assay, biological activity is expressed as the reduction in clotting time relative to a control sample and is converted to “Factor VII units” by comparison with a pooled human […] standard containing 1 unit/ml Factor VII activity. […] Coagulation times (clotting times) are measured and compared to a standard curve using a reference standard in a parallel line assay. Alternatively, Factor VIIa biological activity may be quantified by (i) measuring the ability of Factor VIIa to produce Factor Xa in a system comprising TF embedded in a lipid membrane and Factor X. (Persson et al., J. Biol. Chem. 272:19919-19924, 1997); (ii) measuring Factor X hydrolysis in an aqueous system; (iii) measuring its physical binding to TF using an instrument based on surface plasmon resonance (Persson, FEBS Letts. 413:359-363, 1997) and (iv) measuring hydrolysis of a synthetic substrate. […]
structure (smiles),measurement,value
"COc1cccc([C@H](C)NC(=O)COC(=O)Nc2ccc(C(=N)N)cc2)c1 [Example 1, (S)-(4-carbamimidoylphenyl)carbamic acid [1-(3-methoxyphenyl)ethylcarbamoyl]methyl ester]",stabilizing effect with respect to retention of activity of FVIIa,marked stabilizing effect
